Structures can show the parent of a compound that is named as a salt. Where two headings read alike, the source gives them in different places.
Experiments:
[1] = system: experimental models of arrhythmia; experiment: Antiarrhythmic activity on experimental models of arrhythmia (calcium, aconitic and strophanthin), overall; assay type: in vivo, mice, rats, guinea pigs; details: for antiarrhythmic activity: in vivo
Protocol: The action of 2-(2,6-dimethyl-3,5-diethoxycarbonyl-1,4-dihydropyridine-4-carboxamide) glutaric acid and its disodium salt on the cardiovascular system was studied in experiments with mice, rats, guinea pigs and cats. […] Antiarrhythmic agents such as quinidine and novocaine amide (procaine amide) were used for comparisons in the […] study.
(§1) In the experiments on white mice narcotized with urethane ECGs were recorded in the second standard lead. A 2% solution of calcium chloride was injected into the tail vein at a constant rate (00.1 ml during 2 seconds).
(§2) Comparative study of the antiarrhythmic activity of the compounds on an aconitic model of arrhythmia was carried out on albino rats narcotized with urethane and chloralose (intraperitoneally), ECGs were recorded in the second standard lead.
Guinea pigs were narcotized with urethane and chloralose then strophanthin was administered in them, and against the background of arrhythmia, the above compound was administered intravenously. The doses of the compound, that arrest the strophanthin arrhythmia in the guinea pigs were recorded.

[2] = system: arrythmogenic and lethal effects of calcium chloride; experiment: Antagonism towards the arrhythmogenic and lethal effects of calcium chloride in mice (ECG); assay type: in vivo
Protocol: as §1

Solubility in water = assay type: physicochemical
Strophanthin arrhythmia = experiment: Arrest of strophanthin arrhythmia in guinea pigs; assay type: in vivo; details: for ED50: Cavia porcellus, read-out: ED50, strophanthin arrhythmia in guinea pigs
cardiac arrhythmia = details: cited from earlier work; for antiarrhythmic activity / effect on arterial pressure (side-effect): medical practice; for antiarrhythmic activity / effect on arterial pressure (side-effect) / toxicity: prior art
in vivo = details: mouse, in vivo, ip
Description: (§3) Acute toxicity was investigated on mongrel white mice of both sexes (Table 2).

Aconitic arrhythmia = experiment: Antiarrhythmic activity on aconitic model of arrhythmia in rats; assay type: in vivo, albino rats; details: for ED50: Rattus norvegicus, ip, read-out: ED50, aconitic arrhythmia in rats (average effective antiarrhythmic dose)
Protocol: as §2

cardiovascular system = experiment: Acute experiments in narcotized cats: arterial pressure, respiration, ECG and haemodynamic effects of acetyl choline; assay type: in vivo
Protocol: In acute experiments with cats narcotized with chloralose and urethane arterial pressure, respiration and ECG were recorded. The influence of the above comound on the arterial pressure, respiration, and on the haemodynamic effects of acetyl choline were investigated. Anaqueous solution of the compound was administered intravenously.

white mice = experiment: in vivo; details: intraperitoneal
Description: as §3

[3] = guinea pigs, intravenous, against background of arrhythmia
[4] = compound dose 10 mg/kg intraperitoneally
[5] = compound dose 30 mg/kg intraperitoneally
[6] = cats, intravenous, 0.1-0.2 g/kg
[7] = strophanthin arrhythmia, guinea pigs
[8] = compound dose 3 mg/kg intraperitoneally
[9] = compound dose 6 mg/kg intraperitoneally

CCOC(=O)C1=C(C)NC(C)=C(C(=O)OCC)C1C(=O)NC(CCC(=O)O)C(=O)O (stereo not shown) [Compound of formula I, 2-(2,6-dimethyl-3,5-diethoxycarbonyl-1,4-dihydropyridine-4-carboxamide) glutaric acid]
antiarrhythmic activity [1]: pronouncedantiarrhythmic activity
antiarrhythmic effect compared with novocaine amide ([2]; novocaine amide dose 30 mg/kg, CaCl2 model, mice): same antiarrhythic effect as novocaine amide in a dose of 30 mg/kg
solubility in water (Solubility in water): hardly soluble in water

CCN(CC)CCNC(=O)c1ccc(N)cc1 [Novocaine amide, reference compound]
ED50 (Strophanthin arrhythmia; [3]): 55 ± 7.3 mg/kg
antiarrhythmic activity (cardiac arrhythmia): insufficient antiarrthythmic activity
effect on arterial pressure (side-effect) (cardiac arrhythmia): drastically reduce the arterial pressure
toxicity (cardiac arrhythmia): toxic
LD50 (in vivo): 290 mg/kg
Dose of CaCl2, arrhythmogenic [2, 4]: 116.0 mg/kg
Dose of CaCl2, lethal [2, 4]: 120.0 mg/kg
Dose of CaCl2, arrhythmogenic [2, 5]: 127.0 mg/kg
Dose of CaCl2, lethal [2, 5]: 138.0 mg/kg
ED50 (Aconitic arrhythmia): 45 ± 5 mg/kg

CCOC(=O)C1=C(C)NC(C)=C(C(=O)OCC)C1C(=O)NC(CCC(=O)O)C(=O)O (stereo not shown) [Compound of formula II, disodium salt of 2-(2,6-dimethyl-3,5-diethoxycarbonyl-1,4-dihydropyridine-4-carboxamide) glutaric acid]
change in arterial pressure (cardiovascular system; [6]): does not cause any significant change
change in pulse rate (cardiovascular system; [6]): does not cause any significant change
change in respiration rate (cardiovascular system; [6]): does not cause any significant change
response reaction to acetyl choline (cardiovascular system; cats, intravenous, doses of up to 4 mg/kg): does not reduce the response reaction to acetyl choline
drop of the arterial pressure (cardiovascular system; intravenous application): does not cause a drastic drop of the arterial pressure
ED50 (Strophanthin arrhythmia; [3]): 2.1 ± 0.3 mg/kg
effect on experimental strophanthin arrhythmia (Strophanthin arrhythmia; guinea pig, in vivo): stable effect
activity compared with quinidine (Strophanthin arrhythmia; [7]): not inferior to quinidine
activity relative to novocaine amide (Strophanthin arrhythmia; [7]): approximately 25 fold
LD50 (in vivo): > 2000 mg/kg
toxicity relative to novocaine amide (white mice; mice): 1/17
toxicity relative to quinidine (white mice; mice): 1/12
activity on experimental models of arrhythmia compared with quinidine and novocaine amide ([1]; calcium, aconitic and strophanthin models): higher activity on all kinds of experimental models of arrhythmia
antiarrhythmic activity [1]: pronounced antiarrhythmic activity
Dose of CaCl2, arrhythmogenic [2, 8]: 98.4 mg/kg
Dose of CaCl2, lethal [2, 8]: 105.0 mg/kg
Dose of CaCl2, arrhythmogenic [2, 9]: 127.4 mg/kg
Dose of CaCl2, lethal [2, 9]: 134.5 mg/kg
Dose of CaCl2, arrhythmogenic [2, 4]: 130.5 mg/kg
Dose of CaCl2, lethal [2, 4]: 140.5 mg/kg
effect on arrhythmogenic and lethal doses of calcium chloride ([2]; preliminary administration 20-30 minutes prior to narcosis, mice): considerably increases
solubility in water (Solubility in water): well soluble in water
ED50 (Aconitic arrhythmia): 3 ± 0.5 mg/kg
antiarrhythmic activity compared with quinidine and novocaine amide (Aconitic arrhythmia; aconitic model, rats, intraperitoneal 30-40 minutes before aconitine): higher antiarrhythmic activity than quinidine and novocane amide

C=C[C@H]1C[N@@]2CC[C@H]1C[C@@H]2[C@@H](O)c1ccnc2ccc(OC)cc12 [Quinidine, reference compound]
ED50 (Strophanthin arrhythmia; iv): 2.3 ± 0.4 mg/kg
effect on strophanthin arrhythmia, in clinic (cardiac arrhythmia; clinic): in some cases is ineffective
antiarrhythmic activity (cardiac arrhythmia): insufficient antiarrthythmic activity
effect on arterial pressure (side-effect) (cardiac arrhythmia): drastically reduce the arterial pressure
toxicity (cardiac arrhythmia): toxic
LD50 (in vivo): 156 mg/kg
Acute toxicity, LD50 (white mice; white mice, confidence limit at P = 0.05): 156 mg/kg
Dose of CaCl2, arrhythmogenic [2, 8]: 126.9 mg/kg
Dose of CaCl2, lethal [2, 8]: 136.0 mg/kg
Dose of CaCl2, arrhythmogenic [2, 4]: 120.8 mg/kg
Dose of CaCl2, lethal [2, 4]: 133.5 mg/kg
ED50 (Aconitic arrhythmia): 4.3 ± 0.6 mg/kg

Source: US4485239A, “2-(2,6-Dimethyl-3,5-diethoxycarbonyl-1,4-dihydropyridine-4-carboxamide glutaric acid its disodium salt and method of their preparation” (priority 1982, dated 1984)
